# Measurements taken from ChEMBL document CHEMBL1148751, “Optimization of the indenone ring of indenoisoquinoline topoisomerase I inhibitors” (2007).
# What was measured:
# Assay type in all cases: functional
# MDA-MB-435 = assay: Cytotoxicity against human MDA-MB-435 cells
# OVCAR-3 = assay: Cytotoxicity against human OVCAR-3 cells
# SF-539 = assay: Cytotoxicity against human SF539 cells
# SN12C = assay: Cytotoxicity against human SN12C cells
# UACC-62 = assay: Cytotoxicity against human UACC62 cells
# HCT-116 = assay: Cytotoxicity against human HCT116 cells
# DU-145 = assay: Cytotoxicity against human DU145 cells
# HOP-62 = assay: Cytotoxicity against human HOP62 cells
Compound,GI50 (MDA-MB-435),GI50 (OVCAR-3),GI50 (SF-539),GI50 (SN12C),GI50 (UACC-62),GI50 (HCT-116),GI50 (DU-145),GI50 (HOP-62)
[N-]=[N+]=NCCCn1c2c(c3ccc([N+](=O)[O-])cc3c1=O)C(=O)c1cc(I)ccc1-2,34.7 µM,18.2 µM,2.24 µM,3.89 µM,3.31 µM,2.14 µM,1.78 µM,1.82 µM
CSc1ccc2c(c1)C(=O)c1c-2n(CCCN)c(=O)c2cc([N+](=O)[O-])ccc12,0.204 µM,0.17 µM,< 0.01 µM,0.162 µM,< 0.01 µM,0.023 µM,< 0.01 µM,< 0.01 µM
COc1cc2c3c(n(CCCN=[N+]=[N-])c(=O)c2cc1OC)-c1ccc(N)cc1C3=O,0.214 µM,0.214 µM,0.05 µM,0.148 µM,0.026 µM,0.047 µM,0.059 µM,0.051 µM
NCCCn1c2c(c3ccc([N+](=O)[O-])cc3c1=O)C(=O)c1cc(F)ccc1-2,0.081 µM,0.052 µM,0.028 µM,0.034 µM,< 0.01 µM,< 0.01 µM,< 0.01 µM,< 0.01 µM
CCc1ccc2c(c1)C(=O)c1c-2n(CCCBr)c(=O)c2cc([N+](=O)[O-])ccc12,> 50.1 µM,> 50.1 µM,28.2 µM,> 50.1 µM,32.4 µM,> 50.1 µM,> 50.1 µM,21.4 µM
CCc1ccc2c(c1)C(=O)c1c-2n(CCCN=[N+]=[N-])c(=O)c2cc([N+](=O)[O-])ccc12,> 50.1 µM,> 50.1 µM,> 50.1 µM,> 50.1 µM,> 50.1 µM,> 50.1 µM,> 50.1 µM,> 50.1 µM
COc1cc2c3c(n(CCCN)c(=O)c2cc1OC)-c1ccc(F)cc1C3=O,6.03 µM,6.31 µM,1.12 µM,4.36 µM,3.39 µM,1.38 µM,0.575 µM,0.603 µM
CSc1ccc2c(c1)C(=O)c1c-2n(CCCN=[N+]=[N-])c(=O)c2cc([N+](=O)[O-])ccc12,6.03 µM,3.89 µM,0.891 µM,1.05 µM,0.708 µM,0.776 µM,1.15 µM,0.603 µM
COC(=O)OCc1ccc2c(c1)C(=O)c1c-2n(CCCBr)c(=O)c2cc([N+](=O)[O-])ccc12,> 100 µM,> 100 µM,56.2 µM,> 100 µM,33.9 µM,81.3 µM,> 100 µM,27.5 µM
NCCCn1c2c(c3ccc([N+](=O)[O-])cc3c1=O)C(=O)c1cc(-c3ccccc3)ccc1-2,0.468 µM,1.82 µM,1.62 µM,0.437 µM,1.51 µM,0.178 µM,0.2 µM,0.186 µM
COc1cc2c3c(n(CCCN=[N+]=[N-])c(=O)c2cc1OC)-c1ccc([N+](=O)[O-])cc1C3=O,> 100 µM,> 100 µM,38.9 µM,> 100 µM,69.2 µM,> 100 µM,34.7 µM,89.1 µM
COc1ccc2c(c1)C(=O)c1c-2n(CCCCl)c(=O)c2cc(OC)c(OC)cc12,37.2 µM,70.8 µM,6.76 µM,5.5 µM,3.02 µM,8.32 µM,4.07 µM,4.07 µM
CCOc1ccc2c(c1)C(=O)c1c-2n(CCCBr)c(=O)c2cc([N+](=O)[O-])ccc12,30.9 µM,23.4 µM,5.62 µM,11.7 µM,5.75 µM,6.03 µM,4.27 µM,5.75 µM
